Measurements: ChEMBL document CHEMBL4184240, “Potent human glutaminyl cyclase inhibitors as potential anti-Alzheimer's agents: Structure-activity relationship study of Arg-mimetic region” (Bioorg Med Chem, 2018)
The source made the active and inactive calls. The rule behind the calls is not given here.

Assays:
[1] = Cytotoxicity against mouse HT22 cells assessed as cell viability at 10 uM relative to control; type: cell-based, HT-22; settings: read-out: Activity
hERG (KCNH2) = hERG (KCNH2) (Homo sapiens, UniProt Q12809); assay: Inhibition of human ERG at 10 uM relative to control
hERG (KCNH2), sequence (Q12809 whole entry): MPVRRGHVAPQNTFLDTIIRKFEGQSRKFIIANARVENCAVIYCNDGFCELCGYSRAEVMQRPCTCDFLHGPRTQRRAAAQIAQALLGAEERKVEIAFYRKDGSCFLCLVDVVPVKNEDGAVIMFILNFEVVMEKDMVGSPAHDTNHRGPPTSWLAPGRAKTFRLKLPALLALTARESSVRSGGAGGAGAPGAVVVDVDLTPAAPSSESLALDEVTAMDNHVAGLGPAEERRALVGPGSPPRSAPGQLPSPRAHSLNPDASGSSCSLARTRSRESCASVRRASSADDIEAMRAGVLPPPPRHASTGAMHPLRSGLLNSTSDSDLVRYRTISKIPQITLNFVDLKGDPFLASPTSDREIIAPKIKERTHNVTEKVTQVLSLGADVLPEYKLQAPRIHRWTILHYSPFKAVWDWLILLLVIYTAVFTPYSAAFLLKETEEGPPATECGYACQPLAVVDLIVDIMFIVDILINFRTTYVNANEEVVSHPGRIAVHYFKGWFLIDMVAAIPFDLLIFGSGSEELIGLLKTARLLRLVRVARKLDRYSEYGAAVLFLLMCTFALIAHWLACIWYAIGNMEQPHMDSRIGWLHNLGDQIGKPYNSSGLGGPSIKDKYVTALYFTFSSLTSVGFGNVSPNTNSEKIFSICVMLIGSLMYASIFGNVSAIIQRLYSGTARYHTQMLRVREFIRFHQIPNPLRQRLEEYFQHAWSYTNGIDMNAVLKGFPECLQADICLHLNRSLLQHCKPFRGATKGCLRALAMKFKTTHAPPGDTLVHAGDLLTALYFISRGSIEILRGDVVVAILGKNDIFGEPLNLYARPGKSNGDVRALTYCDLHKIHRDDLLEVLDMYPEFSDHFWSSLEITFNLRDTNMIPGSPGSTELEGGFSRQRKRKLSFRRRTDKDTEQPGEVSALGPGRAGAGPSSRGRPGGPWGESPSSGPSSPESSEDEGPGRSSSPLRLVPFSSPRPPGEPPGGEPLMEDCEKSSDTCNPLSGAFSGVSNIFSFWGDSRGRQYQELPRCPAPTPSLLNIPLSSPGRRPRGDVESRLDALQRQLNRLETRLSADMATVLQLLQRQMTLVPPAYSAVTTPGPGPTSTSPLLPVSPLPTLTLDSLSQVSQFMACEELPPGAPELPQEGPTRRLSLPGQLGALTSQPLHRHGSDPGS

Mus musculus [2] = organism: Mus musculus; assay: animal or person; settings: ICR, central, read-out: INH
Description: (§1) Antialzheimer activity in human amyloid beta (3 to 40) induced acute ICR mouse Alzheimer's disease mouse model assessed as inhibition of amyloid beta (N3pE to 40) formation in brain at 25 mg/kg, icv administered via deep cortical/hippocampal tissue measured next day by sandwich ELISA relative to control

[3] = Permeability of the compound at pH 7.4 after 30 mins by PAMPA; type: ADME; settings: pH 7.4, 0.5 h
Mus musculus [4] = organism: Mus musculus; settings: ICR, 25 mg/kg
Description: as §1

Row | log(permeability) [3] | Compound | viability at 10 µM [1] [%] | inhibition at 10 µM (hERG (KCNH2)) [%] | inhibition in vivo at 25 mg/kg (Mus musculus [2]) [%] | inhibition (Mus musculus [4])
1 | -10 | COc1cc(NC(=S)NCCCn2cncc2C)ccc1OCCCCN1CCN(CCN)CC1 | 100 | 21.1 |  | inactive
2 | -5.7 | COc1cc(NC(=S)NCCCn2cncc2C)ccc1OCCCC(=O)N1CCNCC1 | 100 | 1.9 | 8.07 | 
3 | -5.3 | COc1cc(NC(=S)NCCCn2cncc2C)ccc1OCCN1CC(C)NC(C)C1 (stereo not given) | 100 | 2.5 |  | inactive
4 | -5.8 | COc1cc(NC(=S)NCCCn2cncc2C)ccc1OCc1ccc(C2CCNCC2)cc1 | 100 | 40.1 | 30 | 
5 | -10 | COc1cc(NC(=S)NCCCn2cncc2C)ccc1OCCCCc1ccnc(NCCO)c1 | 100 | 44.4 |  | inactive
6 | -5.6 | COc1cc(NC(=S)NCCCn2cncc2C)ccc1Oc1ccc(C2CCNCC2)cc1 | 100 | 72.8 |  | inactive

Further lines, the compound ahead of its results:

Row | Compound | log(permeability) [3] | viability at 10 µM [1] [%] | inhibition at 10 µM (hERG (KCNH2)) [%] | inhibition in vivo at 25 mg/kg (Mus musculus [2]) [%] | inhibition (Mus musculus [4])
7 | COc1cc(NC(=S)NCCCn2cncc2C)ccc1Oc1ccc(C2=CCNCC2)cc1 | -4.9 | 100 | 52.8 | 16.1 | 
8 | COc1cc(NC(=S)NCCCn2cncc2C)ccc1OCCC1CCN(CCO)CC1 | -6.7 | 100 | 8.2 | 0.19 | 
9 | COc1cc(NC(=S)NCCCn2cncc2C)ccc1OCCC(=O)N1CCNCC1 | -5.7 | 100 | 1.7 | 18.7 | 
10 | COc1cc(NC(=S)NCCCn2cncc2C)ccc1Oc1ccc(N2CCNCC2)cc1 | -5.6 | 100 | 39.7 |  | inactive
11 | COc1cc(NC(=S)NCCCn2cncc2C)ccc1OCCC(=O)NC1CCNCC1 | -5.6 | 100 | 5 | 13.5 | 
12 | COc1cc(NC(=S)NCCCn2cncc2C)ccc1OCCN1CCNCC1C (stereo not given) | -5.8 | 100 | 33.4 | 3.01 | 
13 | COc1cc(NC(=S)NCCCn2cncc2C)ccc1OCCN1CCN(CCN)CC1 | -5.7 | 100 | 2.5 | 5.43 | 
14 | COc1cc(NC(=S)NCCCn2cncc2C)ccc1OCC(=O)N1CCN(CCN)CC1 | -10 | 100 | 14 |  | inactive
15 | COc1cc(NC(=S)NCCCn2cncc2C)ccc1OCCN1CCN(CCOCCN)CC1 |  | 51.1 |  |  | 
16 | COc1cc(NC(=S)NCCCn2cncc2C)ccc1OCCCCN1CCN(CCO)CC1 | -8.7 | 100 |  |  | 
17 | COc1cc(NC(=S)NCCCn2cncc2C)ccc1OCCCCc1ccnc(NCCN)c1 | -10 | 100 | 31.5 |  | inactive
18 | COc1cc(NC(=S)NCCCn2cncc2C)ccc1OCC(=O)NC1CCN(CCN)CC1 | -6.4 | 100 | 17.8 |  | inactive
19 | COc1cc(NC(=S)NCCCn2cncc2C)ccc1OCCCN1CCN(CCN)CC1 | -10 | 100 | 28.9 |  | inactive
20 | COc1cc(NC(=S)NCCCn2cncc2C)ccc1OCCN1CCN(CCO)CC1 | -6 | 100 | 9.7 |  | inactive
